Reference: patent US7728129B2, “Processes for the preparation of piperazinyl and diazapanyl benzamide derivatives” (Janssen Pharmaceutica NV, priority 2005, dated 2010)
Counter-ions that a name gives are not always drawn.

Assay: Hygroscopicity / humidity stability of salts by Dynamic Vapour Sorption (DVS)
Assay type: physicochemical
Settings: solid salt

CC(C)N1CCN(C(=O)c2ccc(CN3CCOCC3)cc2)CC1.O=C(O)/C=C\C(=O)O [(4-Isopropyl-piperazin-1-yl)-(4-morpholin-4-ylmethyl-phenyl)-methanone Bis-maleate Salt]
hygroscopicity by DVS: hygroscopic

CC(C)N1CCN(C(=O)c2ccc(CN3CCOCC3)cc2)CC1.O=C(O)/C=C/C(=O)O [(4-Isopropyl-piperazin-1-yl)-(4-morpholin-4-ylmethyl-phenyl)-methanone Mono-fumarate Salt]
relative humidity up to which the salt is stable, by DVS: up to 70%

CC(C)N1CCN(C(=O)c2ccc(CN3CCOCC3)cc2)CC1 [(4-Isopropyl-piperazin-1-yl)-(4-morpholin-4-ylmethyl-phenyl)-methanone Mono-succinate Salt]
hygroscopicity by DVS (Mono-succinate Salt): non-hygroscopic

CC(C)N1CCN(C(=O)c2ccc(CN3CCOCC3)cc2)CC1 [(4-Isopropyl-piperazin-1-yl)-(4-morpholin-4-ylmethyl-phenyl)-methanone, dihydrobromide semi-hydrate salt]
relative humidity above which the salt is hygroscopic, by DVS: above 10 % RH

CC(C)N1CCN(C(=O)c2ccc(CN3CCOCC3)cc2)CC1 [(4-Isopropyl-piperazin-1-yl)-(4-morpholin-4-ylmethyl-phenyl)-methanone, dihydrochloride monohydrate salt]
hygroscopicity by DVS: hygroscopic
